Experimental data as given in the supplement of paper PMC10307832.

What follows are cell lines tested with O=C(/C=C/c1cccnc1)NCCCCC1CCN(C(=O)c2ccccc2)CC1 [Daporinad] + CC1(C)CCC(c2ccc(Cl)cc2)=C(CN2CCN(c3ccc(C(=O)NS(=O)(=O)c4ccc(N[C@H](CCN5CCOCC5)CSc5ccccc5)c(S(=O)(=O)C(F)(F)F)c4)cc3)CC2)C1 [Navitoclax] (partner 0.5 µM) (assay: relative viability (nuclei count vs DMSO), 5 days (fraction); higher = more cells survive). Settings: first compound 0.01581 µM.
Summary of the method: (§1)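 Each reported value is a median over duplicate plates. It expresses relative viability: treated-well nuclei count divided by vehicle-well nuclei count. Lung cancer cell lines in 1536-well plates were dosed by pin tool a day after seeding, alone with one drug or with a fixed anchor-drug dose plus five library-drug doses (not always all listed) in √10 steps, and nuclei were counted after 5 days.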

Compared with HCC-15, PC-3 [JPC-3] is higher in relative viability: 0.764 for the first, 0.789 for the second.

Compared with EKVX, LC-2-ad is lower in relative viability: 1.11 for the first, 0.393 for the second.

Compared with NCI-H1975, SK-LU-1 is higher in relative viability: 1.06 for the first, 1.1 for the second.

Compared with NCI-H1944, RERF-LC-KJ is higher in relative viability: 1.09 for the first, 1.18 for the second.

These cell lines were tested with O=C(/C=C/c1cccnc1)NCCCCC1CCN(C(=O)c2ccccc2)CC1 [Daporinad] + Nc1nc2[nH]cc(CCc3ccc(C(=O)N[C@@H](CCC(=O)O)C(=O)O)cc3)c2c(=O)[nH]1 [Pemetrexed] (partner 0.2 µM) in the same assay as above. Settings: first compound 0.0005 µM.
Summary of the method: as §1

Compared with BEN, HARA is lower in relative viability: 0.726 for the first, 0.24 for the second.

Going from HCC-78 to NCI-H322M, the relative viability falls from 0.869 to 0.638.

Compared with LCLC-97TM1, NCI-H2009 is higher in relative viability: 0.17 for the first, 1.04 for the second.

First: A-427
Second: NCI-H460
The relative viability of the first is higher: 0.981 for the first, 0.0681 for the second.

Compared with NCI-H1734, NCI-H520 is higher in relative viability: 0.473 for the first, 0.67 for the second.

Compared with NCI-H2347, SW 1573 is higher in relative viability: 0.441 for the first, 0.798 for the second.

Going from NCI-H1395 to 201T, the relative viability falls from 0.839 to 0.333.

First: NCI-H1915
Second: HCC-827
The relative viability of the first is higher: 0.474 for the first, 0.295 for the second.

Compared with LXF-289, NCI-H23 is lower in relative viability: 0.837 for the first, 0.797 for the second.

First: CAL-12T
Second: NCI-H1651
The relative viability of the first is higher: 1.09 for the first, 0.602 for the second.

Going from EPLC-272H to NCI-H2228, the relative viability rises from 0.327 to 0.342.

Compared with NCI-H1355, NCI-H3122 is lower in relative viability: 1 for the first, 0.199 for the second.

Compared with NCI-H1437, NCI-H1755 is higher in relative viability: 0.312 for the first, 0.421 for the second.

First: NCI-H2023
Second: HCC-15
The relative viability of the first is lower: 0.224 for the first, 0.225 for the second.

Compared with PC-3 [JPC-3], EKVX is lower in relative viability: 1.05 for the first, 0.344 for the second.

First: LC-2-ad
Second: NCI-H1975
The relative viability of the first is lower: 0.263 for the first, 0.3 for the second.

First: SK-LU-1
Second: NCI-H1944
The relative viability of the first is higher: 1.04 for the first, 0.607 for the second.

In the case of RERF-LC-KJ, the relative viability is reported as 0.465.

Same assay, conditions: first compound 0.001581 µM

Compared with BEN, HARA is lower in relative viability: 0.792 for the first, 0.258 for the second.

First: HCC-78
Second: NCI-H322M
The relative viability of the first is higher: 0.897 for the first, 0.634 for the second.

Going from LCLC-97TM1 to NCI-H2009, the relative viability rises from 0.2 to 1.01.

First: A-427
Second: NCI-H460
The relative viability of the first is higher: 1.02 for the first, 0.0617 for the second.

First: NCI-H1734
Second: NCI-H520
The relative viability of the first is higher: 0.422 for the first, 0.395 for the second.

First: NCI-H2347
Second: SW 1573
The relative viability of the first is lower: 0.402 for the first, 0.74 for the second.

First: NCI-H1395
Second: 201T
The relative viability of the first is higher: 1.05 for the first, 0.315 for the second.

Going from NCI-H1915 to HCC-827, the relative viability falls from 0.505 to 0.268.

First: LXF-289
Second: NCI-H23
The relative viability of the first is higher: 0.978 for the first, 0.562 for the second.

Compared with CAL-12T, NCI-H1651 is lower in relative viability: 1.21 for the first, 0.557 for the second.

Compared with EPLC-272H, NCI-H2228 is lower in relative viability: 0.339 for the first, 0.307 for the second.

First: NCI-H1355
Second: NCI-H3122
The relative viability of the first is higher: 1.1 for the first, 0.185 for the second.

Going from NCI-H1437 to NCI-H1755, the relative viability rises from 0.313 to 0.397.

Going from NCI-H2023 to HCC-15, the relative viability falls from 0.231 to 0.22.

First: PC-3 [JPC-3]
Second: EKVX
The relative viability of the first is higher: 1.14 for the first, 0.468 for the second.

Compared with LC-2-ad, NCI-H1975 is higher in relative viability: 0.27 for the first, 0.313 for the second.

Compared with SK-LU-1, NCI-H1944 is lower in relative viability: 0.998 for the first, 0.716 for the second.

RERF-LC-KJ was tested, and the relative viability was 0.482.

Same assay, conditions: first compound 0.005 µM

Going from BEN to HARA, the relative viability falls from 0.953 to 0.227.

First: HCC-78
Second: NCI-H322M
The relative viability of the first is higher: 0.798 for the first, 0.635 for the second.

Going from LCLC-97TM1 to NCI-H2009, the relative viability rises from 0.165 to 0.872.

Going from A-427 to NCI-H460, the relative viability falls from 0.937 to 0.0618.

Going from NCI-H1734 to NCI-H520, the relative viability falls from 0.425 to 0.239.

Compared with NCI-H2347, SW 1573 is higher in relative viability: 0.472 for the first, 0.7 for the second.

Compared with NCI-H1395, 201T is lower in relative viability: 0.896 for the first, 0.313 for the second.

Going from NCI-H1915 to HCC-827, the relative viability falls from 0.499 to 0.281.

Compared with LXF-289, NCI-H23 is lower in relative viability: 0.937 for the first, 0.767 for the second.

Compared with CAL-12T, NCI-H1651 is higher in relative viability: 0.502 for the first, 0.659 for the second.

Compared with EPLC-272H, NCI-H2228 is lower in relative viability: 0.312 for the first, 0.304 for the second.

Compared with NCI-H1355, NCI-H3122 is lower in relative viability: 1.03 for the first, 0.185 for the second.

Going from NCI-H1437 to NCI-H1755, the relative viability rises from 0.316 to 0.454.

Going from NCI-H2023 to HCC-15, the relative viability falls from 0.267 to 0.237.

Going from PC-3 [JPC-3] to EKVX, the relative viability falls from 1.34 to 0.389.

First: LC-2-ad
Second: NCI-H1975
The relative viability of the first is lower: 0.285 for the first, 0.31 for the second.

Going from SK-LU-1 to NCI-H1944, the relative viability falls from 1.09 to 0.706.

RERF-LC-KJ showed a relative viability of 0.587.

Same assay, conditions: first compound 0.01581 µM

First: BEN
Second: HARA
The relative viability of the first is higher: 0.935 for the first, 0.276 for the second.

First: HCC-78
Second: NCI-H322M
The relative viability of the first is higher: 0.874 for the first, 0.46 for the second.

First: LCLC-97TM1
Second: NCI-H2009
The relative viability of the first is lower: 0.185 for the first, 0.545 for the second.

Going from A-427 to NCI-H460, the relative viability falls from 0.662 to 0.0602.

Going from NCI-H1734 to NCI-H520, the relative viability falls from 0.353 to 0.149.

First: NCI-H2347
Second: SW 1573
The relative viability of the first is lower: 0.454 for the first, 0.461 for the second.

First: NCI-H1395
Second: 201T
The relative viability of the first is higher: 0.927 for the first, 0.34 for the second.

Going from NCI-H1915 to HCC-827, the relative viability rises from 0.174 to 0.256.

Compared with LXF-289, NCI-H23 is lower in relative viability: 0.889 for the first, 0.31 for the second.

First: CAL-12T
Second: NCI-H1651
The relative viability of the first is lower: 0.314 for the first, 0.545 for the second.

First: EPLC-272H
Second: NCI-H2228
The relative viability of the first is higher: 0.413 for the first, 0.406 for the second.

Compared with NCI-H1355, NCI-H3122 is lower in relative viability: 0.873 for the first, 0.203 for the second.

First: NCI-H1437
Second: NCI-H1755
The relative viability of the first is lower: 0.332 for the first, 0.469 for the second.

Compared with NCI-H2023, HCC-15 is lower in relative viability: 0.202 for the first, 0.199 for the second.

Going from PC-3 [JPC-3] to EKVX, the relative viability falls from 1.07 to 0.343.

LC-2-ad and NCI-H1975 are the same in relative viability: 0.256 for the first, 0.256 for the second.

Going from SK-LU-1 to NCI-H1944, the relative viability falls from 0.941 to 0.577.

In the case of RERF-LC-KJ, the relative viability is reported as 0.568.
